Results reported in patent US20230126893A1, “[(1,4,5-TRISUBSTITUTED-1H-PYRAZOL-3-YL)SULFANYL]ACETIC ACID DERIVATIVES, SALTS THEREOF, AND USE THEREOF AS ACTIVE HERBICIDAL INGREDIENTS” (BAYER AKTIENGESELLSCHAFT, priority 2020, published 2023).

test system: Digitaria sanguinalis; experiment: Pre-emergence herbicidal effect against DIGSA; assay type: in vivo; details: 1280 g/ha, visual score after 3 weeks, 100% = plants have died, 0% = like control plants
Procedure, shortened: (§1)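 Percent herbicidal activity (100% = dead, 0% = as control) was rated by eye 3 weeks post-application in greenhouse pots of sandy loam, with treatment sprayed onto the covering soil before emergence.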

Compound	Pre-emergence action against DIGSA [%]
CCOC(=O)CSc1nn(-c2ccc(F)cc2)c(-c2ccc(F)cc2)c1Br [Example I-019]	100
CCOC(=O)CSc1nn(-c2ccccc2F)c(-c2cncc(Cl)c2)c1Br [II-007]	100

test system: Tripleurospermum inodorum; experiment: Pre-emergence herbicidal effect against MATIN; assay type: in vivo; details: 1280 g/ha, visual score after 3 weeks, 100% = plants have died, 0% = like control plants
Procedure, shortened: as §1

Compound	Pre-emergence action against MATIN [%]
CCOC(=O)CSc1nn(-c2ccc(F)cc2)c(-c2ccc(F)cc2)c1Br [Example I-019]	100
CCOC(=O)CSc1nn(-c2ccccc2F)c(-c2cncc(Cl)c2)c1Br [II-007]	100

test system: Bassia scoparia; experiment: Pre-emergence herbicidal effect against KCHSC; assay type: in vivo; details: 1280 g/ha, visual score after 3 weeks, 100% = plants have died, 0% = like control plants
Description: (§2) 1. Pre-emergence herbicidal effect and crop plant compatibility Seeds of monocotyledonous and dicotyledonous weed plants and crop plants are laid out in sandy loam soil in wood-fibre pots and covered with soil. The compounds of the invention, formulated in the form of wettable powders (WP) or as emulsion concentrates (EC), are then applied to the surface of the covering soil as aqueous suspension or emulsion at a water application rate equating to 600 to 800 L/ha with addition of 0.2% wetting agent. After the treatment, the pots are placed in a greenhouse and kept under good growth conditions for the trial plants. The damage to the test plants is scored visually after a test period of 3 weeks by comparison with untreated controls (herbicidal activity in percent (%): 100% activity=the plants have died, 0% activity=like control plants). [table]

Compound	Pre-emergence action against KCHSC [%]
CCOC(=O)CSc1nn(-c2ccc(F)cc2)c(-c2ccc(F)cc2)c1Br [Example I-019]	100
CCOC(=O)CSc1nn(-c2ccccc2F)c(-c2cncc(Cl)c2)c1Br [II-007]	100

test system: Tripleurospermum inodorum; experiment: Post-emergence herbicidal effect against MATIN; assay type: in vivo; details: 1280 g/ha, visual assessment about 3 weeks after treatment, 100% = plants have died, 0% = like control plants
Procedure, shortened: (§3)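 Percent herbicidal effect, judged visually against untreated plants about 3 weeks after treatment, where 100% means dead plants. Treatment was a foliar spray of WP or EC formulations (600 to 800 l/ha water, 0.2% wetting agent) on one-leaf-stage plants raised in sandy loam.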

Compound	Post-emergence action against MATIN [%]
CCOC(=O)CSc1nn(-c2ccc(F)cc2)c(-c2ccc(F)cc2)c1Br [Example I-019]	100
CCOC(=O)CSc1nn(-c2ccccc2F)c(-c2cncc(Cl)c2)c1Br [II-007]	100

test system: Amaranthus retroflexus; experiment: Post-emergence herbicidal effect against AMARE; assay type: in vivo; details: 1280 g/ha, visual assessment about 3 weeks after treatment, 100% = plants have died, 0% = like control plants
Method: [table] 2. Post-emergence herbicidal effect and crop plant compatibility Seeds of monocotyledonous and dicotyledonous weed and crop plants are laid out in sandy loam soil in wood-fibre pots, covered with soil and cultivated in a greenhouse under good growth conditions. 2 to 3 weeks after sowing, the test plants are treated at the one-leaf stage. The compounds of the invention, formulated in the form of wettable powders (WP) or as emulsion concentrates (EC), are then sprayed onto the green parts of the plants as aqueous suspension or emulsion at a water application rate equating to 600 to 800 l/ha with addition of 0.2% wetting agent. After the test plants have been left to stand in the greenhouse under optimal growth conditions for about 3 weeks, the action of the preparations is assessed visually in comparison to untreated controls (herbicidal action in percent (%): 100% activity=the plants have died, 0% activity=like control plants).

Compound	Post-emergence action against AMARE [%]
CCOC(=O)CSc1nn(-c2ccccc2F)c(-c2cncc(Cl)c2)c1Br [II-007]	100

test system: Veronica persica; experiment: Post-emergence herbicidal effect against VERPE; assay type: in vivo; details: 1280 g/ha, visual assessment about 3 weeks after treatment, 100% = plants have died, 0% = like control plants
Procedure, shortened: as §3

Compound	Post-emergence action against VERPE [%]
CCOC(=O)CSc1nn(-c2ccc(F)cc2)c(-c2ccc(F)cc2)c1Br [Example I-019]	100
CCOC(=O)CSc1nn(-c2ccccc2F)c(-c2cncc(Cl)c2)c1Br [II-007]	100

test system: Alopecurus myosuroides; experiment: Pre-emergence herbicidal effect against ALOMY; assay type: in vivo; details: 1280 g/ha, visual score after 3 weeks, 100% = plants have died, 0% = like control plants
Procedure, shortened: as §1

Compound	Pre-emergence action against ALOMY [%]
CCOC(=O)CSc1nn(-c2ccc(F)cc2)c(-c2ccc(F)cc2)c1Br [Example I-019]	90
CCOC(=O)CSc1nn(-c2ccccc2F)c(-c2cncc(Cl)c2)c1Br [II-007]	100

test system: Echinochloa crus-galli; experiment: Pre-emergence herbicidal effect against ECHCG; assay type: in vivo; details: 1280 g/ha, visual score after 3 weeks, 100% = plants have died, 0% = like control plants
Procedure, shortened: as §1

Compound	Pre-emergence action against ECHCG [%]
CCOC(=O)CSc1nn(-c2ccc(F)cc2)c(-c2ccc(F)cc2)c1Br [Example I-019]	100
CCOC(=O)CSc1nn(-c2ccccc2F)c(-c2cncc(Cl)c2)c1Br [II-007]	100

test system: Abutylon threophrasti; experiment: Post-emergence herbicidal effect against ABUTH; assay type: in vivo; details: 1280 g/ha, visual assessment about 3 weeks after treatment, 100% = plants have died, 0% = like control plants
Procedure, shortened: as §3

Compound	Post-emergence action against ABUTH [%]
CCOC(=O)CSc1nn(-c2ccc(F)cc2)c(-c2ccc(F)cc2)c1Br [Example I-019]	100
CCOC(=O)CSc1nn(-c2ccccc2F)c(-c2cncc(Cl)c2)c1Br [II-007]	90

test system: Echinochloa crus-galli; experiment: Post-emergence herbicidal effect against ECHCG; assay type: in vivo; details: 1280 g/ha, visual score after about 3 weeks, 100% = plants have died, 0% = like control plants
Procedure, shortened: as §3

Compound	Post-emergence action against ECHCG [%]
CCOC(=O)CSc1nn(-c2ccccc2F)c(-c2cncc(Cl)c2)c1Br [II-007]	100

test system: Setaria viridis; experiment: Pre-emergence herbicidal effect against SETVI; assay type: in vivo; details: 1280 g/ha, visual score after 3 weeks, 100% = plants have died, 0% = like control plants
Procedure, shortened: as §1

Compound	Pre-emergence action against SETVI [%]
CCOC(=O)CSc1nn(-c2ccc(F)cc2)c(-c2ccc(F)cc2)c1Br [Example I-019]	100
CCOC(=O)CSc1nn(-c2ccccc2F)c(-c2cncc(Cl)c2)c1Br [II-007]	100

test system: Veronica persica; experiment: Pre-emergence herbicidal effect against VERPE; assay type: in vivo; details: 1280 g/ha, visual score after 3 weeks, 100% = plants have died, 0% = like control plants
Procedure, shortened: as §1

Compound	Pre-emergence action against VERPE [%]
CCOC(=O)CSc1nn(-c2ccc(F)cc2)c(-c2ccc(F)cc2)c1Br [Example I-019]	100
CCOC(=O)CSc1nn(-c2ccccc2F)c(-c2cncc(Cl)c2)c1Br [II-007]	100

test system: Lolium rigidum; experiment: Pre-emergence herbicidal effect against LOLRI; assay type: in vivo; details: 1280 g/ha, visual score after 3 weeks, 100% = plants have died, 0% = like control plants
Procedure, shortened: as §1

Compound	Pre-emergence action against LOLRI [%]
CCOC(=O)CSc1nn(-c2ccccc2F)c(-c2cncc(Cl)c2)c1Br [II-007]	100

test system: Abutylon threophrasti; experiment: Pre-emergence herbicidal effect against ABUTH; assay type: in vivo; details: 1280 g/ha, visual score after 3 weeks, 100% = plants have died, 0% = like control plants
Description: as §2

Compound	Pre-emergence action against ABUTH [%]
CCOC(=O)CSc1nn(-c2ccc(F)cc2)c(-c2ccc(F)cc2)c1Br [Example I-019]	90
CCOC(=O)CSc1nn(-c2ccccc2F)c(-c2cncc(Cl)c2)c1Br [II-007]	90

test system: Poa annua; experiment: Post-emergence herbicidal effect against POAAN; assay type: in vivo; details: 1280 g/ha, visual assessment about 3 weeks after treatment, 100% = plants have died, 0% = like control plants
Procedure, shortened: as §3

Compound	Post-emergence action against POAAN [%]
CCOC(=O)CSc1nn(-c2ccc(F)cc2)c(-c2ccc(F)cc2)c1Br [Example I-019]	100
CCOC(=O)CSc1nn(-c2ccccc2F)c(-c2cncc(Cl)c2)c1Br [II-007]	100

test system: Bassia scoparia; experiment: Post-emergence herbicidal effect against KCHSC; assay type: in vivo; details: 1280 g/ha, visual assessment about 3 weeks after treatment, 100% = plants have died, 0% = like control plants
Procedure, shortened: as §3

Compound	Post-emergence action against KCHSC [%]
CCOC(=O)CSc1nn(-c2ccc(F)cc2)c(-c2ccc(F)cc2)c1Br [Example I-019]	100

test system: Stellaria media; experiment: Pre-emergence herbicidal effect against STEME; assay type: in vivo; details: 1280 g/ha, visual score after 3 weeks, 100% = plants have died, 0% = like control plants
Procedure, shortened: as §1

Compound	Pre-emergence action against STEME [%]
CCOC(=O)CSc1nn(-c2ccc(F)cc2)c(-c2ccc(F)cc2)c1Br [Example I-019]	90
CCOC(=O)CSc1nn(-c2ccccc2F)c(-c2cncc(Cl)c2)c1Br [II-007]	100

test system: Amaranthus retroflexus; experiment: Pre-emergence herbicidal effect against AMARE; assay type: in vivo; details: 1280 g/ha, visual score after 3 weeks, 100% = plants have died, 0% = like control plants
Procedure, shortened: as §1

Compound	Pre-emergence action against AMARE [%]
CCOC(=O)CSc1nn(-c2ccccc2F)c(-c2cncc(Cl)c2)c1Br [II-007]	100

test system: Alopecurus myosuroides; experiment: Post-emergence herbicidal effect against ALOMY; assay type: in vivo; details: 1280 g/ha, visual score after about 3 weeks, 100% = plants have died, 0% = like control plants
Procedure, shortened: as §3

Compound	Post-emergence action against ALOMY [%]
CCOC(=O)CSc1nn(-c2ccc(F)cc2)c(-c2ccc(F)cc2)c1Br [Example I-019]	100
CCOC(=O)CSc1nn(-c2ccccc2F)c(-c2cncc(Cl)c2)c1Br [II-007]	100

test system: Stellaria media; experiment: Post-emergence herbicidal effect against STEME; assay type: in vivo; details: 1280 g/ha, visual assessment about 3 weeks after treatment, 100% = plants have died, 0% = like control plants
Procedure, shortened: as §3

Compound	Post-emergence action against STEME [%]
CCOC(=O)CSc1nn(-c2ccc(F)cc2)c(-c2ccc(F)cc2)c1Br [Example I-019]	90
CCOC(=O)CSc1nn(-c2ccccc2F)c(-c2cncc(Cl)c2)c1Br [II-007]	100

test system: Setaria viridis; experiment: Post-emergence herbicidal effect against SETVI; assay type: in vivo; details: 1280 g/ha, visual assessment about 3 weeks after treatment, 100% = plants have died, 0% = like control plants
Procedure, shortened: as §3

Compound	Post-emergence action against SETVI [%]
CCOC(=O)CSc1nn(-c2ccc(F)cc2)c(-c2ccc(F)cc2)c1Br [Example I-019]	90
CCOC(=O)CSc1nn(-c2ccccc2F)c(-c2cncc(Cl)c2)c1Br [II-007]	90

test system: Poa annua; experiment: Pre-emergence herbicidal effect against POAAN; assay type: in vivo; details: 1280 g/ha, visual score after 3 weeks, 100% = plants have died, 0% = like control plants
Procedure, shortened: as §1

Compound	Pre-emergence action against POAAN [%]
CCOC(=O)CSc1nn(-c2ccc(F)cc2)c(-c2ccc(F)cc2)c1Br [Example I-019]	100
CCOC(=O)CSc1nn(-c2ccccc2F)c(-c2cncc(Cl)c2)c1Br [II-007]	100

test system: Digitaria sanguinalis; experiment: Post-emergence herbicidal effect against DIGSA; assay type: in vivo; details: 1280 g/ha, visual score after about 3 weeks, 100% = plants have died, 0% = like control plants
Procedure, shortened: as §3

Compound	Post-emergence action against DIGSA [%]
CCOC(=O)CSc1nn(-c2ccc(F)cc2)c(-c2ccc(F)cc2)c1Br [Example I-019]	100
CCOC(=O)CSc1nn(-c2ccccc2F)c(-c2cncc(Cl)c2)c1Br [II-007]	100
